9 compounds from ChEMBL document CHEMBL5465560, “Selectivity Literature for EUbOPEN Chemogenomic Library” (2024) can be followed below.

Assay [1] has as its target T1, Serine/threonine-protein kinase DCLK1 (Homo sapiens) (UniProt O15075).
T1 sequence (whole entry): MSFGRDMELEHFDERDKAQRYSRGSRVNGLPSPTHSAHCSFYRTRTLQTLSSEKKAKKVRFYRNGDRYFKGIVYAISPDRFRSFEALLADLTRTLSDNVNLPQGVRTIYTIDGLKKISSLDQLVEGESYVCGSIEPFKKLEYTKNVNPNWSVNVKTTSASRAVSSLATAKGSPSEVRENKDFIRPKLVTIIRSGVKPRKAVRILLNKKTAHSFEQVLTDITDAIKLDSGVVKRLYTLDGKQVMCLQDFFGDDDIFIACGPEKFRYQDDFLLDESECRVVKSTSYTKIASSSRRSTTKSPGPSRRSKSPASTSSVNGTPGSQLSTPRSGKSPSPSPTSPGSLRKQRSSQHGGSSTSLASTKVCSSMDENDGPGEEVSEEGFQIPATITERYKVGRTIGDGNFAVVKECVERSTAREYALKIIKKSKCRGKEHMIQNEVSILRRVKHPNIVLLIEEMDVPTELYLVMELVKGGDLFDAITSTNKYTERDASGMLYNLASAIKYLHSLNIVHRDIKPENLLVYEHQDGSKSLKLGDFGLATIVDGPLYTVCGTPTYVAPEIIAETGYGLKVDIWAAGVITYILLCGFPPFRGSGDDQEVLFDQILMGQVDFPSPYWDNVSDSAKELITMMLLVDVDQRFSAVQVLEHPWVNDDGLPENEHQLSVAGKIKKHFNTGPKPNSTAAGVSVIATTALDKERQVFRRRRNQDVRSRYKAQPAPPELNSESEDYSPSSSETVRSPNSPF
The note with it: at 10 µM.

Assay [2] concerns the target Activin receptor type-2A (Homo sapiens) (UniProt P27037). The note with it: at 10 µM.
The subject of assay [3] is Serine/threonine-protein kinase B-raf (Homo sapiens), P15056 [V600E]. In words: (§1) Selectivity interaction (KinomeScan (DiscoverX)) EUB0001079a BRAF. The note with it: at 1 µM.
The target in assay [4] is Serine/threonine-protein kinase B-raf (Homo sapiens) (UniProt P15056). The description is as §1. Conditions: at 1 µM.
Chain of Serine/threonine-protein kinase B-raf (Homo sapiens) (P15056 whole entry): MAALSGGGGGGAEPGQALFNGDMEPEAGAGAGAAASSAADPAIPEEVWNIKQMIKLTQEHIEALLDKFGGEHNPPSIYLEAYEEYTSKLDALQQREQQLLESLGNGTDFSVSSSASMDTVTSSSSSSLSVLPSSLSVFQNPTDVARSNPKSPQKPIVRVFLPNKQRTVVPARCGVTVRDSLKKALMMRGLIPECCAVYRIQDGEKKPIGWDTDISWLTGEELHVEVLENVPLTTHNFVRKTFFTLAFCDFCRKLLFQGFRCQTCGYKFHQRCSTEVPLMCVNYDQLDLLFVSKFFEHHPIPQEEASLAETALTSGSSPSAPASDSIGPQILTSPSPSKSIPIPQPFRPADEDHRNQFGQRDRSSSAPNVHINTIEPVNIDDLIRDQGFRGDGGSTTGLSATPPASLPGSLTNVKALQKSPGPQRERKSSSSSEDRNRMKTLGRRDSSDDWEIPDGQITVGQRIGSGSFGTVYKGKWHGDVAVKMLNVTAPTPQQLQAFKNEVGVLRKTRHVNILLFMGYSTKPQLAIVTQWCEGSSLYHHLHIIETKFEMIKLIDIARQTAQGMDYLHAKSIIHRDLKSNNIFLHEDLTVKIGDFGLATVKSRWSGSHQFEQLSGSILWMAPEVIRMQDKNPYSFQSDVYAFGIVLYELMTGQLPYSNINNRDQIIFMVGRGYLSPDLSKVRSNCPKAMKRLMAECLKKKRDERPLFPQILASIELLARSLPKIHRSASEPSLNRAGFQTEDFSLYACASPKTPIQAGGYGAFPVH
Assay [5] concerns the target DNA (cytosine-5)-methyltransferase 3B (Homo sapiens) (UniProt Q9UBC3). In words: Selectivity interaction (Methyltransferase screen (radiometric assays, panel of 8 PRMTs, 21 protein lysine methyltransferases, 3 DNA methyltransferases, and one RNA methyltransferase)) EUB0000271b DNMT3B.
Assay [6] concerns the target Serine/threonine-protein kinase PAK 6 (Homo sapiens) (UniProt Q9NQU5). In words: Selectivity interaction (KinomeScan (DiscoverX)) EUB0000045b PAK6. The note with it: at 10 µM.
Assay [7] concerns the target T2, Ephrin type-B receptor 3 (Homo sapiens) (UniProt P54753).
T2 sequence (whole entry): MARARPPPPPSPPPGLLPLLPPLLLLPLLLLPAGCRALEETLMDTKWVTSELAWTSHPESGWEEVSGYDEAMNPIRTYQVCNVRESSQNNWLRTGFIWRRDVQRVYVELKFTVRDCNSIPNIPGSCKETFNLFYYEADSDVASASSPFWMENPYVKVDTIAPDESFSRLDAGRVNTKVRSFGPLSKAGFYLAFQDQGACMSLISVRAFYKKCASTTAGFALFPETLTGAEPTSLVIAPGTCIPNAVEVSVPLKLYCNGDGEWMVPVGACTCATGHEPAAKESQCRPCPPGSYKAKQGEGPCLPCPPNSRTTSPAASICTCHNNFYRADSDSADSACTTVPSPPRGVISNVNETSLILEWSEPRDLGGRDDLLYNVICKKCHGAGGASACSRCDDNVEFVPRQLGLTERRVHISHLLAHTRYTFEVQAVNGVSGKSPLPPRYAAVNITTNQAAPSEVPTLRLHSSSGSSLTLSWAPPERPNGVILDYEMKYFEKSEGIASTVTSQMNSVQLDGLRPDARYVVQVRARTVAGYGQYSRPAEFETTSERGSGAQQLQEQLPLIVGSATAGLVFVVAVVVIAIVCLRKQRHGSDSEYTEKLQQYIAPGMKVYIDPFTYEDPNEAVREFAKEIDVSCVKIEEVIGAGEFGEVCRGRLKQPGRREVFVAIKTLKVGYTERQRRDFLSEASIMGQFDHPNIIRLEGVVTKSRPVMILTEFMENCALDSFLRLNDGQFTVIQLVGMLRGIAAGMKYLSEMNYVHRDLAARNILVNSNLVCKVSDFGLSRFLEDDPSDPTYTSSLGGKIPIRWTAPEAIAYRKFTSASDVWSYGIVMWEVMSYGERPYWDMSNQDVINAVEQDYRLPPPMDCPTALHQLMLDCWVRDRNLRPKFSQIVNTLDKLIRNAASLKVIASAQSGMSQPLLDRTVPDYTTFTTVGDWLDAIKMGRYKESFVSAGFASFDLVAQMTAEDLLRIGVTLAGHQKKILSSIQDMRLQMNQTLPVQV
In words: Selectivity interaction (SelectScreen profiling (Invitrogen)) EUB0000607a EPHB3. Conditions: at 2 µM.

The target in assay [8] is Serine/threonine-protein kinase PAK 4 (Homo sapiens, UniProt O96013). In words: Selectivity interaction (KinomeScan (DiscoverX)) EUB0000607a PAK4. Conditions: at 10 µM.
Chain of Serine/threonine-protein kinase PAK 4 (O96013 whole entry, looked up): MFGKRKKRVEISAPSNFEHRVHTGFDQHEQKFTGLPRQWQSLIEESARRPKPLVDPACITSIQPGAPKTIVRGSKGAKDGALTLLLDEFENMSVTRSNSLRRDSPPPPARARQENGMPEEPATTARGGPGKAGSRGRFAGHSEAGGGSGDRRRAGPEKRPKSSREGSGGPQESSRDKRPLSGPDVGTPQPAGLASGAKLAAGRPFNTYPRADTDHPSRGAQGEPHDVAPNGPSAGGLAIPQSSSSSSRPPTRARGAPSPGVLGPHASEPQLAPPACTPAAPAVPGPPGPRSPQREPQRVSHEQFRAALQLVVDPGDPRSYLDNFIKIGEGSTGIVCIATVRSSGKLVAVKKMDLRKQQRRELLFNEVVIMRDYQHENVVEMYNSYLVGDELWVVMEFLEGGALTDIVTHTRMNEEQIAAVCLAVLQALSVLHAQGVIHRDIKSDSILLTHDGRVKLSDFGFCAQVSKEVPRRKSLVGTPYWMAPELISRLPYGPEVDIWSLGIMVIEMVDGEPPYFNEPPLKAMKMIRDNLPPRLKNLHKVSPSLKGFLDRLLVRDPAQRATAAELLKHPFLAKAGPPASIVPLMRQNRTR
For assay [9], the target named is T3, Serine/threonine-protein kinase 3 (Homo sapiens) (UniProt Q13188).
T3 sequence (whole entry): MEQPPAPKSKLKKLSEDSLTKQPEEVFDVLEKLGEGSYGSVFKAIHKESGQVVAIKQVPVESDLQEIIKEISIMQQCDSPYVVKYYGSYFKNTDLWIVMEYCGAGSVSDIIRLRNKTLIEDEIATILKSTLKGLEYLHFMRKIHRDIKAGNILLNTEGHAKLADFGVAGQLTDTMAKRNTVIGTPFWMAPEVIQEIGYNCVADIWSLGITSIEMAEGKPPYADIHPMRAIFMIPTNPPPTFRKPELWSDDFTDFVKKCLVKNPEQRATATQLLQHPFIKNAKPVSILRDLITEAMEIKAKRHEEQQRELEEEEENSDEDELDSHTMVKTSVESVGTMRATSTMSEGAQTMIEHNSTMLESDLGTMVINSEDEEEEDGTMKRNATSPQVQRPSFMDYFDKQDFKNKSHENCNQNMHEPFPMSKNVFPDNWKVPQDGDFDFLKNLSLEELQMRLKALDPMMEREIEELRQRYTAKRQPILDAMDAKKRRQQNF
In words: Selectivity interaction (Kinase panel (DSF assay)) EUB0001489b STK3. A general note: DSF heats the sample and reads unfolding from a dye or from intrinsic fluorescence.

Assay [10] has as its target Receptor tyrosine-protein kinase erbB-4 (Homo sapiens, UniProt Q15303). In words: Selectivity interaction (Kinase panel (literature)) EUB0001199aCl ERBB4. The note with it: at 1 µM.
Assay [11] concerns the target Serine/threonine-protein kinase SIK2 (Homo sapiens) (UniProt Q9H0K1). In words: Selectivity interaction (KinomeScan (DiscoverX)) EUB0000618a SIK2. Conditions: at 10 µM.
Assay [12] has as its target Wee1-like protein kinase (Homo sapiens) (UniProt P30291). In words: Selectivity interaction (KinomeScan (DiscoverX)) EUB0000618a WEE1. Conditions: at 10 µM.

Chain of Wee1-like protein kinase (Homo sapiens) (P30291 whole entry, looked up): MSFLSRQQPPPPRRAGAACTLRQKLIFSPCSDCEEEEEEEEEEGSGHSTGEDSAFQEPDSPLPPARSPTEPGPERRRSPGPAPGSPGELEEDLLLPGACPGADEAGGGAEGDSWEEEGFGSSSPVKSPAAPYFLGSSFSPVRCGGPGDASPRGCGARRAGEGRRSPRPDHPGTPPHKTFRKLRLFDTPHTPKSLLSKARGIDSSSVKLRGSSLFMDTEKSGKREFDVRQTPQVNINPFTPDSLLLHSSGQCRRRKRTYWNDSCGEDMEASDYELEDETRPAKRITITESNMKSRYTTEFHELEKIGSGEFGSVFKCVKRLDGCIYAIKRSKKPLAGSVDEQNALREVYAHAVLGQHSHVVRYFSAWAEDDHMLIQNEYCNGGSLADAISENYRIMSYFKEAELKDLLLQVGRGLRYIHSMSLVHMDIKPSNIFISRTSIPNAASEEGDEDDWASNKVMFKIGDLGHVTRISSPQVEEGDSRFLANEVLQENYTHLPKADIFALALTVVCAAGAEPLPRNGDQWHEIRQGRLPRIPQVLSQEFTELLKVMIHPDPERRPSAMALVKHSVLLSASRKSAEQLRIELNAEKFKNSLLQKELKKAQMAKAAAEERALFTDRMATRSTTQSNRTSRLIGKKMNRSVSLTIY
Chain of Serine/threonine-protein kinase SIK2 (Homo sapiens) (Q9H0K1 whole entry, looked up): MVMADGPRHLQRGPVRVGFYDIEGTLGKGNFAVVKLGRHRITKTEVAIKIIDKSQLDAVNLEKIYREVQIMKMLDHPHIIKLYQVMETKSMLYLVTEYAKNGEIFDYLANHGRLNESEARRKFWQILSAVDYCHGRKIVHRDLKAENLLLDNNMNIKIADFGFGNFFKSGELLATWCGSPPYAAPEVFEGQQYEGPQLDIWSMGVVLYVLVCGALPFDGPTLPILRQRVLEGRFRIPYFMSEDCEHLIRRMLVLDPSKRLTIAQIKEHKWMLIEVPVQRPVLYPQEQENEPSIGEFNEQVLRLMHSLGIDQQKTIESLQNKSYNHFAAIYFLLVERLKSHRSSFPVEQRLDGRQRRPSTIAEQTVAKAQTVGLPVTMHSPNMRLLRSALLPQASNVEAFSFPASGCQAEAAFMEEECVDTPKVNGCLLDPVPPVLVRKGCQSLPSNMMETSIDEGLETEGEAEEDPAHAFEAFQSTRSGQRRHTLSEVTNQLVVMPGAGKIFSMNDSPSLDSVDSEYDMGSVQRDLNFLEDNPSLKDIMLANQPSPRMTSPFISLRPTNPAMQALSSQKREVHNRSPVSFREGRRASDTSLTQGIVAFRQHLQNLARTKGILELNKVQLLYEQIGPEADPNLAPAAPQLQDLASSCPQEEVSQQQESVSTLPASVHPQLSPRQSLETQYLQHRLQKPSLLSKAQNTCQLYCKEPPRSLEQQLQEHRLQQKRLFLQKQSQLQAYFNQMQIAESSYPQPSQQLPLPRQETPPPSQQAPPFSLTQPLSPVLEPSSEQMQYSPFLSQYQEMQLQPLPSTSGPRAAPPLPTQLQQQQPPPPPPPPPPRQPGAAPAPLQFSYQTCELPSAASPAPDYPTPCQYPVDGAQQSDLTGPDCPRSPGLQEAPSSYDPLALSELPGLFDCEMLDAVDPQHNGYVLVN
Chain of Serine/threonine-protein kinase B-raf (Homo sapiens), P15056 [V600E] (P15056 whole entry V600E): as the sequence (P15056 whole entry) above, with V600E counted along it
Chain of Activin receptor type-2A (Homo sapiens) (P27037 whole entry): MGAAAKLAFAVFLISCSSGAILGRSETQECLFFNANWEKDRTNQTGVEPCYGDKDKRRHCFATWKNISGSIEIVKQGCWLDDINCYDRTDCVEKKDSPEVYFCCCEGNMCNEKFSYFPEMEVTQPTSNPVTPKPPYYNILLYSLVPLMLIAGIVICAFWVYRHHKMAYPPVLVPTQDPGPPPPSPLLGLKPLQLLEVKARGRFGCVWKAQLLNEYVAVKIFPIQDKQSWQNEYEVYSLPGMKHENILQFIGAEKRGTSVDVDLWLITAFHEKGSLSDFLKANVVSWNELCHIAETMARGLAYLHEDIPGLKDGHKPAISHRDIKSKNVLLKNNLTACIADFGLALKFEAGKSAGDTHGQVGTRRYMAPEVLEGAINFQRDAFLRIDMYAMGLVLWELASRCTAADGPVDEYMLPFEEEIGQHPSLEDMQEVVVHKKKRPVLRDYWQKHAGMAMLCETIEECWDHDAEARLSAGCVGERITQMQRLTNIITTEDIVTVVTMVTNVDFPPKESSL
Chain of Serine/threonine-protein kinase PAK 6 (Homo sapiens) (Q9NQU5 whole entry, looked up): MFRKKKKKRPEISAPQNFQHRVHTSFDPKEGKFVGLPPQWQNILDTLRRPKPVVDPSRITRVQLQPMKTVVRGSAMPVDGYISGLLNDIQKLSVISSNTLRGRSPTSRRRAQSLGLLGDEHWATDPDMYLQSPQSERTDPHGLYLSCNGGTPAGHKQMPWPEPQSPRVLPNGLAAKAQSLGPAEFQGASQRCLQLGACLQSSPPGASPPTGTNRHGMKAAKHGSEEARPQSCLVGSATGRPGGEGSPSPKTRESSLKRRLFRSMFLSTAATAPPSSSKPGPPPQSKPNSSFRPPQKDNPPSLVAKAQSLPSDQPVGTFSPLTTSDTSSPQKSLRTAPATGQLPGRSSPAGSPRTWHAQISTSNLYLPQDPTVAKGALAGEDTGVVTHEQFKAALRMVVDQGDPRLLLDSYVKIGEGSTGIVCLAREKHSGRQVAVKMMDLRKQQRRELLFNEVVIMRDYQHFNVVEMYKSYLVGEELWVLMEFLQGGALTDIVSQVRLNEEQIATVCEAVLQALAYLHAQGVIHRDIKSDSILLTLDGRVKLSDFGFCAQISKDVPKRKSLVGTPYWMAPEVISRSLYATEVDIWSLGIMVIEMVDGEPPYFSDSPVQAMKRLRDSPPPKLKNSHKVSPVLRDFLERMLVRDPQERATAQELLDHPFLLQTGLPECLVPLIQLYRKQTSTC

In turn, `Cc1cc([C@@H](C)Nc2ccccc2C(=O)O)c2nc(N3CCOCC3)cc(=O)n2c1` [AZD-6482] returned a % of control in assay [1] of 78%. In [2], `CCN(CC)CCCCNc1ncc2cc(-c3cc(OC)cc(OC)c3)c(NC(=O)NC(C)(C)C)nc2n1` returned a % of control of 100%. On to `Nc1cnc(N2CCc3cc(S(=O)(=O)Nc4c(F)cc(Cl)cc4F)cc(N4CCCC4=O)c32)nc1` [TP-020n], for which the % of control in assay [3] was 100%; in assay [4], 98%. With `Cc1cc(C)cc([C@@H]2c3cc(C)ccc3NC(=O)CN2C(=O)c2ccc(Br)s2)c1`, the figures for the % of activity in assay [5] (at 1 µM) and in assay [5] (at 10 µM) were 103% and 98.3%, respectively. Regarding `C=CC(=O)Nc1cc(-n2c(=O)ccc3cnc4ccc(-c5ccc(NS(C)(=O)=O)cc5)cc4c32)ccc1C`, the % of control in assay [6] amounted to 100%.

As for `CNC(=O)Nc1ccc(-c2nc(N3CC4CCC(C3)O4)c3cnn(C4CCC5(CC4)OCCO5)c3n2)cc1`, the % of inhibition in assay [7] was determined as 3%. The same compound had a % of control in [8] of 100%.

As to `CN1CCN(C(=O)c2ccc3cc2OCCOCCNc2ccn4ncc-3c4n2)CC1`, in assay [9], the dTM was found to be 3.4 K. As for `CN1Cc2nccc(-c3cn(C)nc3-c3ccc(F)cc3)c2C1=O`, the % of inhibition in assay [10] was determined as 15%.

For `O[C@H]1CC[C@H](Nc2ncc3nc(Nc4c(F)cc(F)cc4F)n([C@H]4CCOC4)c3n2)CC1`, the % of control in [11] came to 33%; in assay [12] it was 100%.
